This note sets out measurements from ChEMBL document CHEMBL1201862, “PubChem BioAssay data set” (2004).

Activity calls are given as the source filed them. A value given as a limit tells only on which side of the number the result lay.

Data set [1] deals with Nucleotide-binding oligomerization domain-containing protein 2 (Homo sapiens, UniProt Q9HC29). The data set is described as follows: NOD2 signaling inhibitors, cell-based, luminescence, uHTS, HEK293 (AID 1566). The class given is functional.
Sequence of Nucleotide-binding oligomerization domain-containing protein 2 (Q9HC29 whole entry, the tested form may be a part): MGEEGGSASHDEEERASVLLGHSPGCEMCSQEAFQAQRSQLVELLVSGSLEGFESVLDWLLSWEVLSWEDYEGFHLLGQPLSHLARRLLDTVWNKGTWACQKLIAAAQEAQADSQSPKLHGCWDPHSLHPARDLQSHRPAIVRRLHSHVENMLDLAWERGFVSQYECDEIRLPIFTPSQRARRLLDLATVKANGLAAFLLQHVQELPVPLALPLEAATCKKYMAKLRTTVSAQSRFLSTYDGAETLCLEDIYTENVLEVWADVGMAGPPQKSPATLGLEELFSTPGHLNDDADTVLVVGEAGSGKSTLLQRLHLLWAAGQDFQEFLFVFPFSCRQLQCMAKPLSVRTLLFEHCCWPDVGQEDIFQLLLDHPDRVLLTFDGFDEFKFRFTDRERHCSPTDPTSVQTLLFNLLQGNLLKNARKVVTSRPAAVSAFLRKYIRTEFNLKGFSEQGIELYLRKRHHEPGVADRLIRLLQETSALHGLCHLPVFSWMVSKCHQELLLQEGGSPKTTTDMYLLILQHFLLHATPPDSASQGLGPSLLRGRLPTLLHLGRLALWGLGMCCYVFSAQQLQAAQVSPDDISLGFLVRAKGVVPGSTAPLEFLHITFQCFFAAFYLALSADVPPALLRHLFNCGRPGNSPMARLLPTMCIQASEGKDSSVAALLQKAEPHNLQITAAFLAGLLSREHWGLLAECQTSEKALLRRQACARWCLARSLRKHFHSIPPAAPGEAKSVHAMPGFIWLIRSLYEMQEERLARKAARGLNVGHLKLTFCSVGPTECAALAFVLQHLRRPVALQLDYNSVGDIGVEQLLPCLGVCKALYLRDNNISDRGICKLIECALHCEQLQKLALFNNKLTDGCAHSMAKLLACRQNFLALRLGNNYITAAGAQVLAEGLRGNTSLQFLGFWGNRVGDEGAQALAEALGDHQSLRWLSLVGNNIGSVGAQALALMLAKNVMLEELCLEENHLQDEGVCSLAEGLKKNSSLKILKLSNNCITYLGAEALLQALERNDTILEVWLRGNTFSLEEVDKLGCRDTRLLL
Data set [2] concerns the target Dual specificity tyrosine-phosphorylation-regulated kinase 1A (Rattus norvegicus, UniProt Q63470). The class given is biochemical, Homo sapiens.
In data set [3] the test system is HEK293. The data set is described as follows: NOD1 signaling inhibitors, primary screen, cell-based, luminescence, uHTS (AID 1578). Format: functional. The note with it: Homo sapiens.
Data set [4] has as its system HEK293. The data set is described as follows: cells. The note with it: Homo sapiens. The class given is functional, cell-based.
For data set [5], the system named is HEK293. Kind of data set: cells. The class given is functional, cell-based. The note with it: Homo sapiens. This is another data set of the same source.
The subject of data set [6] is HEK293. Kind of data set: cells. The class given is functional, cell-based. The note with it: Homo sapiens. This is another data set of the same source.
In data set [7] the test system is HEK293. The data set is described as follows: NOD2 signaling inhibitors in MDP-stimulated cells, cell-based, uHTS, luminescence (AID 2001). Particulars: Homo sapiens. The class given is functional.
Data set [8] deals with Beta-2 adrenergic receptor (Homo sapiens, UniProt P07550). The data set is described as follows: beta2AR agonists driving receptor internalization, dose response, cell-based, FAP fluorogen, flow cytometry, cherry pick 1 (AID 588763). The class given is functional.
Sequence of Beta-2 adrenergic receptor (P07550 whole entry): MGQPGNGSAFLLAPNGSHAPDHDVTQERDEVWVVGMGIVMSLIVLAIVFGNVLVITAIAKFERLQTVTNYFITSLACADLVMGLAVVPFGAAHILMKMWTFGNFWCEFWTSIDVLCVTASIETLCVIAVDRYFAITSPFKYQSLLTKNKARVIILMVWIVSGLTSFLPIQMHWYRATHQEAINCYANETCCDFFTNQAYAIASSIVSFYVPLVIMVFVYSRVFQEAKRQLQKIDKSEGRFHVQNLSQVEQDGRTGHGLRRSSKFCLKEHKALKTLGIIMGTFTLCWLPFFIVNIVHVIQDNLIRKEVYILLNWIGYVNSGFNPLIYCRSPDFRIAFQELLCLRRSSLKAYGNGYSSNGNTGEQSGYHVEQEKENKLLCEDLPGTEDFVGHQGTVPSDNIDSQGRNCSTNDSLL
The target of data set [9] is Cytochrome P450 2D6 (Homo sapiens, UniProt P10635).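 Note: CYP2D6 member of a cytochrome P450 panel assay.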
Sequence of Cytochrome P450 2D6 (P10635 whole entry): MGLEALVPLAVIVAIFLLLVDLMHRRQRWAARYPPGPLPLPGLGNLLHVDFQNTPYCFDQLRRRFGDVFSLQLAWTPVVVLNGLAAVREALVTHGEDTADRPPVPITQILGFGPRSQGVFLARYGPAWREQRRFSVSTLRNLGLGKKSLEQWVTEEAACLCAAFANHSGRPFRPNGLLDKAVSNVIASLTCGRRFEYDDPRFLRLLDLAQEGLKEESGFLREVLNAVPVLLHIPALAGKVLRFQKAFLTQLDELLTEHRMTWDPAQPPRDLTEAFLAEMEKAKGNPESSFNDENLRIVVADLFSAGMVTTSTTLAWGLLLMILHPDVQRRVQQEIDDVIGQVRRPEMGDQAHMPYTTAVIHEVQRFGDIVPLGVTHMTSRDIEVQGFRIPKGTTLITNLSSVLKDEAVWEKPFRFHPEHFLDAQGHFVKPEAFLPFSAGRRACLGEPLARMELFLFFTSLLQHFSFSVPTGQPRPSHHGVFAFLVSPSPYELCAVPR
Data set [10] concerns the target T1, High affinity choline transporter 1 (Homo sapiens, UniProt Q9GZV3).
T1 sequence (Q9GZV3 whole entry): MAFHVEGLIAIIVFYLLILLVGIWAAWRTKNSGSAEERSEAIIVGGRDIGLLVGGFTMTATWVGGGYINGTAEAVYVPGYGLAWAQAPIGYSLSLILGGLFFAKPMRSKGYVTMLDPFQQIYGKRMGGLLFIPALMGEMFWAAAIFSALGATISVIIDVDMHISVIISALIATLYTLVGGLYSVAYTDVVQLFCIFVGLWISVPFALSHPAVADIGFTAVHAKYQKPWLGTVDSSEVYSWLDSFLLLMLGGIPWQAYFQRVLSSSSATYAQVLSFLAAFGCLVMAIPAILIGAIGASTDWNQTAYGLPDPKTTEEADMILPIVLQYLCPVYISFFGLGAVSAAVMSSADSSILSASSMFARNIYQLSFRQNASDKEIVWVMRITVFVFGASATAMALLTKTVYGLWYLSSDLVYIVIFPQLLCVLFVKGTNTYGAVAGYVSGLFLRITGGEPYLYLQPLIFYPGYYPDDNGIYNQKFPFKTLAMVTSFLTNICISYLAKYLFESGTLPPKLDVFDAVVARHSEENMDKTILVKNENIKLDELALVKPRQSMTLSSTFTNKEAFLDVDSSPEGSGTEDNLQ
The data set is described as follows: CHT inhibitors, dose response, cell-based, 5-point CRC, membrane potential dye (AID 504840). Format: functional.

Data set [11] deals with Vero. Kind of data set: Vero cell cytotoxicity, cytotoxicity control for flavivirus capping enzyme inhibitors (AID 588742). The class given is functional. Particulars: Chlorocebus sabaeus.
The target of data set [12] is Cytochrome P450 2C9 (Homo sapiens, UniProt P11712).
Sequence of Cytochrome P450 2C9 (P11712 whole entry): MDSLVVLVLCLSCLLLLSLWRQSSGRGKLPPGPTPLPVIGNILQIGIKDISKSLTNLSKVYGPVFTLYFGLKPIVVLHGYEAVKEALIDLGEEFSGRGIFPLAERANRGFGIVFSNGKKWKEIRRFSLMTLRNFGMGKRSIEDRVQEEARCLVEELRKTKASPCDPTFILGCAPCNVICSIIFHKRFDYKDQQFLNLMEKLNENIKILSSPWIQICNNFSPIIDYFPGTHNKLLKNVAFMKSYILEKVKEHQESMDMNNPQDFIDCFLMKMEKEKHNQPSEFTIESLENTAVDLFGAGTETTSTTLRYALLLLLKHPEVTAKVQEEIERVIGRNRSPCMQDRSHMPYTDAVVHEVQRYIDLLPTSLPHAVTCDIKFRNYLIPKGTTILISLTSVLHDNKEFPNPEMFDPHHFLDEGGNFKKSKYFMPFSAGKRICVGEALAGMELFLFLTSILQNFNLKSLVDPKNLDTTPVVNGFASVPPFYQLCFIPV
The target of data set [13] is Cytochrome P450 2C19 (Homo sapiens, UniProt P33261). Kind of data set: Cytochrome panel assay with activity outcomes. Panel member name: p450-cyp2c19 Compounds with AC50 equal or less than 10 uM are considered active. Format: functional. The note with it: read-out: AC50.
Sequence of Cytochrome P450 2C19 (P33261 whole entry): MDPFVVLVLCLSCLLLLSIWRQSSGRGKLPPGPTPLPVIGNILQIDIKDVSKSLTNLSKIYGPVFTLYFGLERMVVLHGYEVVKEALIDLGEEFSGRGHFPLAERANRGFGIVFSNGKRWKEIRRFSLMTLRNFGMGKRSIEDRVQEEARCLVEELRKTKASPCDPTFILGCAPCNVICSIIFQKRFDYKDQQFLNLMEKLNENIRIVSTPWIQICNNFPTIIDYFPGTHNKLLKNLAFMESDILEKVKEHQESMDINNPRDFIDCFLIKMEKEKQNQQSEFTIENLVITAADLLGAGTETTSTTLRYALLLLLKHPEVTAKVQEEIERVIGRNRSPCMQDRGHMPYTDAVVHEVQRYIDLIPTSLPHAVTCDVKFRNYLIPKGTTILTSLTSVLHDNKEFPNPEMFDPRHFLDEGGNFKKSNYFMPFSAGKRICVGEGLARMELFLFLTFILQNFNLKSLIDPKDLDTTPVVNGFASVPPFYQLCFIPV
Data set [14] concerns the target T2, Sentrin-specific protease 1 (Homo sapiens, UniProt Q9P0U3).
T2 sequence (Q9P0U3 whole entry): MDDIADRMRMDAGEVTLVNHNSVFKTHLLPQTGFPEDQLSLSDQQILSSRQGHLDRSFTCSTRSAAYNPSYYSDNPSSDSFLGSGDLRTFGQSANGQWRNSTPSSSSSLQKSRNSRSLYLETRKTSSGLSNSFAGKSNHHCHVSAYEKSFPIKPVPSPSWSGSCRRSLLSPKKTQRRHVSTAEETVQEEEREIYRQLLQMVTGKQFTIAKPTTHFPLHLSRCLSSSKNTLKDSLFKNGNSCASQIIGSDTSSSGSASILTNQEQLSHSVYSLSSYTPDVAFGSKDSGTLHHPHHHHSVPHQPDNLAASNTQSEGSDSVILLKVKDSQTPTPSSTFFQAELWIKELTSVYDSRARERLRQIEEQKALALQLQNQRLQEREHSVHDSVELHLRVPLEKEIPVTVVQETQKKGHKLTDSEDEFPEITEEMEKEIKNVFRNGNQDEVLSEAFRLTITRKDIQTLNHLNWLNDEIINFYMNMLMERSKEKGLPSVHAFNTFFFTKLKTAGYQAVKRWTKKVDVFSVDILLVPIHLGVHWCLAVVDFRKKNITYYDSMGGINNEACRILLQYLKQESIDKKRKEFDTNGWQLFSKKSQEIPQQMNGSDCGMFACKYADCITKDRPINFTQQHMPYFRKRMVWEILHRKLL
The data set is described as follows: potency of human SENP1 inhibitors, dose response, biochemical, kinetic FRET (AID 651697). Format: functional. Particulars: read-out: IC50_Mean.

Data set [15] addresses T2, Sentrin-specific protease 1. The data set is described as follows: Dose response confirmation of small molecule inhibitors of the catalytic domain of the SUMO protease, SENP1 in a FRET assay. The class given is functional. Particulars: read-out: IC50_Mean.
Data set [16] can be described thus: ZM109 Env clade C HIV-1 fusion inhibitors, dose response, HeLa effector, CEM target cells, luciferase, cherry-pick (AID 652058). The class given is functional, cell-based.
Data set [17] in a line: inhibitors of HIV Env-driven cell fusion, dose response, cherry-pick (AID 652057). The class given is functional, cell-based.
Data set [18] in a line: inhibitors of clade B AD8 Env fusion, dose response, cell-based, cherry-pick (AID 652062).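 Note: luciferase signal from cell-cell fusion driven by HIV-1 clade B AD8 Env; potency is for inhibitors of fusion seen as a drop in luminescence.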 The class given is functional.
Data set [19] has as its system HEK293. Kind of data set: cells. Particulars: Homo sapiens.
In data set [20] the test system is HEK293. Kind of data set: cells. Particulars: Homo sapiens. The source holds these as a separate data set.
Data set [21] can be described thus: off-target signal loss in HeLa-CEM21 co-culture – HeLa F-luc CTL cells, cherry-picked, counter-screen for HIV-1 Env fusion inhibitor project, dose response (AID 652040).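 Note: potency for signal decrease marking cytotoxic or nonspecific inhibition.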 The class given is functional, cell-based. (In general: Counterscreens check selectivity or assay interference.)
The target in data set [22] is T3, Heat shock factor protein 1 (Mus musculus, UniProt P38532).
T3 sequence (P38532 whole entry): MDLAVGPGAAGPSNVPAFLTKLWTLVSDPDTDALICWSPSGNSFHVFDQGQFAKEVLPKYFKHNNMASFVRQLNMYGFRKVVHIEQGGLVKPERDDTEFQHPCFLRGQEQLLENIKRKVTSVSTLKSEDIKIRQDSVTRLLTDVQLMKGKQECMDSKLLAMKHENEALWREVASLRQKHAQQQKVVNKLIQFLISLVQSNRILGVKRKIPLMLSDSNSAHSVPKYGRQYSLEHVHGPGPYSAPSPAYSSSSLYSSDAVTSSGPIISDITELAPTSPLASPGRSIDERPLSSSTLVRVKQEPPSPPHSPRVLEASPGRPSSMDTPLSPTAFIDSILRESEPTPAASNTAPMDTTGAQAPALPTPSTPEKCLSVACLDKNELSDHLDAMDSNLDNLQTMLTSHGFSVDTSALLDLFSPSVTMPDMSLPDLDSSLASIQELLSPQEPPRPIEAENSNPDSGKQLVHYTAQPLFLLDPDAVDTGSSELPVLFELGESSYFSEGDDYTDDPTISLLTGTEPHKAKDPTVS
Kind of data set: HSF1 potentiators in luciferase reporter cells, confirmation, cell-based, NIH3T3, luminescence, dose retest (AID 435004).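 Note: stress induced by proteasome inhibitor MG132 added 30 min after compound; luciferase reporter driven by HSF1 response element in NIH3T3 cells; actives raise luminescence as potentiators of the MG132 stress response.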 Format: functional. For orientation: A reporter such as luciferase makes a cellular process visible.

Data set [23] deals with Phosphomannomutase 2 (Homo sapiens, UniProt O15305). Kind of data set: Counter screen SAR assay for PMM2 inhibitors via a fluorescence intensity assay. [Related pubchem assays (depositor defined):AID1545, AID1574].
Sequence of Phosphomannomutase 2 (O15305 whole entry): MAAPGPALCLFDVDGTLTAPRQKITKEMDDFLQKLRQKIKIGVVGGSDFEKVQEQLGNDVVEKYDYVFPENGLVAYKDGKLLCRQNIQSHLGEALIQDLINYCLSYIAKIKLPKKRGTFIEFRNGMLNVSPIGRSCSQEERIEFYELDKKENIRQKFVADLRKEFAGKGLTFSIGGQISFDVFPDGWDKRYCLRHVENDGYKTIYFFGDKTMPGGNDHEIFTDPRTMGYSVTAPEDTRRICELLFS
The target of data set [24] is Glucose-6-phosphate 1-dehydrogenase (Homo sapiens, UniProt P11413). Kind of data set: human G6PD enzyme inhibitors, dose response, selectivity assay for P. falciparum G6PD inhibitor project, biochemical, fluorescence (AID 504792). Format: functional.
Sequence of Glucose-6-phosphate 1-dehydrogenase (P11413 whole entry): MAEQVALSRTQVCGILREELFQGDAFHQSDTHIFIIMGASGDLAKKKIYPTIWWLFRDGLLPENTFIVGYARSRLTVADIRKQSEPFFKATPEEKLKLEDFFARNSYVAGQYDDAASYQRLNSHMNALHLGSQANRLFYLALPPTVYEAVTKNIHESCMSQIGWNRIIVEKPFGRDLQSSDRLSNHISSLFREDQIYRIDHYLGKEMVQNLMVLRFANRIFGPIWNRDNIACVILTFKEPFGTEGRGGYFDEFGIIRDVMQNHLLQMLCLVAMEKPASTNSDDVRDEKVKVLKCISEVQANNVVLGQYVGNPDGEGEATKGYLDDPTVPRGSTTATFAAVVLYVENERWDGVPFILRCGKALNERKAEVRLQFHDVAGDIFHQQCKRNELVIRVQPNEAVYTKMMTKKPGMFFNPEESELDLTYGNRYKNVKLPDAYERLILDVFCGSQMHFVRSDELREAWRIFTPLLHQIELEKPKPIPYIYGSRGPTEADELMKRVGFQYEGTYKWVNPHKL
The target in data set [25] is Large T antigen (Simian virus 40, UniProt P03070). Format: functional, Betapolyomavirus macacae.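 Note: Confirmatory-stage PubChem screen for compounds that inhibit SV40 T antigen.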
Sequence of Large T antigen (P03070 whole entry): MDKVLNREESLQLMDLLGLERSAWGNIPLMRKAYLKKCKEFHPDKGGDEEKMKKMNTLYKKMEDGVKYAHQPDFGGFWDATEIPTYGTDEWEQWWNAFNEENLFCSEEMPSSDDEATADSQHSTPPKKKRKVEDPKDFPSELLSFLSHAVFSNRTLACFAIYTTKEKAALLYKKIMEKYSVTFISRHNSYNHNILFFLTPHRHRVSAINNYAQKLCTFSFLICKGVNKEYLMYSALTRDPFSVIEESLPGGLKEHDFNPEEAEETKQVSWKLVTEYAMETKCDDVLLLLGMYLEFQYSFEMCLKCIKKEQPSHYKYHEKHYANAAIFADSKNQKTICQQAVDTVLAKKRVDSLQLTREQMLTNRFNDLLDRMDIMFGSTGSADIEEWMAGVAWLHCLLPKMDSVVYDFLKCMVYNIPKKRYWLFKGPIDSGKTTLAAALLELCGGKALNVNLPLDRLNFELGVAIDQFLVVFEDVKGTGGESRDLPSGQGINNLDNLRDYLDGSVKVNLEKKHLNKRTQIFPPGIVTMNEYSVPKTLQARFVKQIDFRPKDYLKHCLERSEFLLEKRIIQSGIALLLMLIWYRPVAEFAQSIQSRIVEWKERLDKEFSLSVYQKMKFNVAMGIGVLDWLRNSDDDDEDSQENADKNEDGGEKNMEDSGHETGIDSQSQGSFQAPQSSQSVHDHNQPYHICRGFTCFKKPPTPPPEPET
Data set [26] in a line: THP-1 cell cytotoxicity, dose response, cytotoxicity control for non-replicating M. tuberculosis project (AID 489025). Format: functional.
In data set [27] the target is DNA dC->dU-editing enzyme APOBEC-3A (Homo sapiens, UniProt P31941). Kind of data set: APOBEC3A DNA deaminase inhibitors, dose response, biochemical (AID 504722). Format: functional.
Sequence of DNA dC->dU-editing enzyme APOBEC-3A (P31941 whole entry): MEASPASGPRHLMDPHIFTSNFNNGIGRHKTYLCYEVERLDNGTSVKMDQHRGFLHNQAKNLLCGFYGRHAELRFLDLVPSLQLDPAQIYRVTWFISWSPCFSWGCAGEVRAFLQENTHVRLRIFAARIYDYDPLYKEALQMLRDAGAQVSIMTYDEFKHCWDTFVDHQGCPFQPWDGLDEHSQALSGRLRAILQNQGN
For data set [28], the target named is T4, Mannose-6-phosphate isomerase (Homo sapiens, UniProt P34949).
T4 sequence (P34949 whole entry): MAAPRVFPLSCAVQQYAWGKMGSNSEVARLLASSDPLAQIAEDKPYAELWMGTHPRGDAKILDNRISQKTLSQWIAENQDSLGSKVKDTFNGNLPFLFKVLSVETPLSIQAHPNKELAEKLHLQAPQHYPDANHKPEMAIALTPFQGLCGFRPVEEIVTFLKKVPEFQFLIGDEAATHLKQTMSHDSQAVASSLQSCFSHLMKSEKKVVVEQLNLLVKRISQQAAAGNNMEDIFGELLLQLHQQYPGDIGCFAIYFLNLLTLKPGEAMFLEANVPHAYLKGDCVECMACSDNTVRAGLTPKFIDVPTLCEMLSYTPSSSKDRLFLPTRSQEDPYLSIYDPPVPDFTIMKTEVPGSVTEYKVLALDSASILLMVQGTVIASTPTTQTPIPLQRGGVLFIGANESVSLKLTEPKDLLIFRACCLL
Kind of data set: inhibitors of human PMI, primary screen, biochemical, fluorescence intensity, coupled assay (AID 1209).

Data set [29] concerns the target T4, Mannose-6-phosphate isomerase. Kind of data set: human PMI inhibitors, high substrate, primary screen, biochemical, fluorescence intensity, high mannose 6-phosphate (AID 1220).
Data set [30] has the same target. Kind of data set: PMI enzyme inhibitors, confirmation, biochemical, fluorescence intensity (AID 1535).
Data set [31] has as its target DNA dC->dU-editing enzyme APOBEC-3G (Homo sapiens, UniProt Q9HC16). The data set is described as follows: Dose Response confirmation of small molecule APOBEC3G DNA Deaminase Inhibitors via a fluorescence-based single-stranded DNA deaminase assay. [Related pubchem assays (depositor defined):AID493012, AID493028]. The class given is functional.

Sequence of DNA dC->dU-editing enzyme APOBEC-3G (Q9HC16 whole entry): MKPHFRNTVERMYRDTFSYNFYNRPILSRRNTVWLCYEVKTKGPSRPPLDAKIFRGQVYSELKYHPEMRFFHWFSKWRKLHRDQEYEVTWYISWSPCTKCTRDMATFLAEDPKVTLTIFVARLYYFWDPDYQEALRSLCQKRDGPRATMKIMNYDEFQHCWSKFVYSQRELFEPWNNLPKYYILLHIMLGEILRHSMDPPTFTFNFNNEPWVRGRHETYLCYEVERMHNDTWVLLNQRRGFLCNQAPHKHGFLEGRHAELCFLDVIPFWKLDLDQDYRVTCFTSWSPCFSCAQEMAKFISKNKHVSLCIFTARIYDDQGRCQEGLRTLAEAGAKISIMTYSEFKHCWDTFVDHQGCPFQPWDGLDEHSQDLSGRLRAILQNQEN

Broadly, the EC50 is the midpoint of the concentration-response curve. A word on the AC50: it is the concentration giving half of the maximal activity seen. In the case of `CN(C)S(=O)(=O)c1cccc(NC(S)=Nc2cccc3cnccc23)c1`, the EC50 was 9.33 µM (active) in [1] and 10.6 µM (active) in [3]. For the same compound, the AC50 in [2] is 3.86 µM (active). Besides, the IC50 in data set [4] is 13.4 µM (active); in data set [5] it was > 20 µM (inactive); in [6], 3.39 µM (active); in data set [7], 4.64 µM (active).
`CCN(CC)S(=O)(=O)c1cc(NC(=O)C2=COCCO2)ccc1Cl`: the EC50 in [8] was 0.038 µM (active).
As for `N/C(CC/C(N)=N/O)=N\O`, the AC50 result in data set [9] is given as “inconclusive”.
In general, CC50 refers to the concentration at which the toxic effect on the cells reaches its halfway point. In the case of `Cc1ccccc1N1C(=O)NC(=O)/C(=C\c2c(-c3ccccc3)[nH]c3ccccc23)C1=O`, in data set [3], the EC50 is 6.37 µM (active). Moreover, the IC50 is > 20 µM (inactive) in data set [4], 8.69 µM (active) in [6], 15.4 µM (inactive) in data set [7] and 11 µM (active) in data set [10]. For the same compound, the CC50 in data set [11] was 23.2 µM (active).
On to `CCOc1ccc(/C=C/C(=O)Nc2ccc(OC)cc2[N+](=O)[O-])cc1`, for which the half-maximal activity concentration (AC50) result is “inconclusive” in data set [12], 39.8 µM (inconclusive) in data set [13] and “inconclusive” in data set [9]. Besides, the IC50 is 6.32 µM (active) in data set [14] and 5.84 µM (active) in data set [15].
Take `CCN(C[C@H]1N[C@@](CC)(C(=O)OC)[C@H]2C(=O)N(Cc3ccccc3)C(=O)[C@@H]12)S(=O)(=O)c1ccc(OC)cc1`: the AC50 in data set [16] is 3.76 µM (active); in data set [17], 1.64 µM (active); in [18], 7.2 µM (active); in data set [21] it was 1.89 µM (active). The EC50 in [19] and in data set [20] was > 59.6 µM (inactive) each time.
Take `CCCCSc1nc2c(=S)n(C)c(=O)n(C)c2[nH]1`: the EC50 in data set [19] and in data set [20] was > 59.5 µM (inactive) throughout.
Take `COc1ccc(/C=c2\s/c(=C\C(=O)C(C)(C)C)[nH]c2=O)cc1O`: the AC50 in data set [2] was 4.65 µM (active). In addition, in [22], the EC50 is 41.8 µM (active).
With `Cc1ccnc(-n2sc3ccccc3c2=O)n1`, the IC50 in [23] is 65.9 µM (active); in data set [24], 36.1 µM (inactive); in data set [25], 12.5 µM (active); in data set [27], > 100 µM (inactive); in data set [28] it was 11.2 µM (active); in data set [29], 17.8 µM (active). Also, the IC50 in data set [30] was 4.43 µM (active); in data set [31], 15.4 µM (active). Also, in data set [26], the 50% cytotoxic concentration (CC50) is > 40 µM (active).
